PubChem BioAssay AID256 (DTP/NCI, 2004)
Values joined by “and” are separate entries in the source; they are usually repeats but may differ in a detail not shown here. Equal values may be shown once. Inconclusive results and toxic doses are left out. How the source made its calls: active means survival T/C of 150% or more; inactive means T/C below 125% in these data.

Test system: CD2F1 mice, L1210 leukemia ip, survival T/C
Assay: NCI In Vivo Anticancer Drug Screen. Data for tumor model L1210 Leukemia (intraperitoneal) in CD2F1 (CDF1) mice
Conditions: higher = longer survival
In short: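 Tumor-bearing mice (transplanted tumor) were split into treated and vehicle control groups, and the measured endpoint of each treated group was divided by that of its vehicle controls.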

[1] = endpoint: mean survival time, dose: 100.0 mg/kg/injection, schedule: Q04DX003 (ip), vehicle: saline with Tween-80
[2] = endpoint: mean survival time, dose: 100.0 mg/kg/injection, schedule: Q01DX009 (ip), vehicle: saline with Tween-80
[3] = endpoint: mean survival time, dose: 200.0 mg/kg/injection, schedule: Q01DX009 (ip), vehicle: saline with Tween-80
[4] = endpoint: mean survival time, dose: 200.0 mg/kg/injection, schedule: Q04DX003 (ip), vehicle: saline with Tween-80
[5] = endpoint: mean survival time, dose: 400.0 mg/kg/injection, schedule: Q01DX009 (ip), vehicle: saline with Tween-80
[6] = endpoint: mean survival time, dose: 400.0 mg/kg/injection, schedule: Q04DX003 (ip), vehicle: saline with Tween-80
[7] = endpoint: mean survival time, dose: 100.0 mg/kg/injection, schedule: Q01DX001 (ip), vehicle: saline with Tween-80
[8] = endpoint: mean survival time, dose: 200.0 mg/kg/injection, schedule: Q01DX001 (ip), vehicle: saline with Tween-80
[9] = endpoint: mean survival time, dose: 400.0 mg/kg/injection, schedule: Q01DX001 (ip), vehicle: saline with Tween-80
[10] = endpoint: mean survival time, dose: 100.0 mg/kg/injection, schedule: Q04DX002 (ip), vehicle: saline

Measured: T/C

Cc1ccc(NN=O)nc1
inactive: endpoint: median survival time, dose: 1.5 mg/kg/injection, schedule: Q01DX009 (ip), vehicle: water 110 % of control | endpoint: median survival time, dose: 1.56 mg/kg/injection, schedule: Q01DX009 (ip), vehicle: water 114 % of control | endpoint: median survival time, dose: 3.0 mg/kg/injection, schedule: Q01DX009 (ip), vehicle: water 114 % of control | endpoint: median survival time, dose: 3.12 mg/kg/injection, schedule: Q01DX009 (ip), vehicle: water 123 % of control | endpoint: median survival time, dose: 24.0 mg/kg/injection, schedule: Q01DX009 (ip), vehicle: water 115 % of control and 106 % of control
active: endpoint: median survival time, dose: 12.0 mg/kg/injection, schedule: Q01DX009 (ip), vehicle: water 156 % of control

CCCCCCC(=C/c1ccccc1)/C=N/NC(=O)c1ccc[n+](C)c1
inactive: [1] 98 % of control

COc1ccc2nc3cc(Cl)ccc3c(Nc3cccc(NS(C)(=O)=O)c3)c2n1
inactive: endpoint: mean survival time, dose: 12.5 mg/kg/injection, schedule: Q01DX009 (ip), vehicle: other 100 % of control | endpoint: mean survival time, dose: 25.0 mg/kg/injection, schedule: Q01DX009 (ip), vehicle: other 93 % of control | endpoint: mean survival time, dose: 50.0 mg/kg/injection, schedule: Q01DX009 (ip), vehicle: other 89 % of control | endpoint: mean survival time, dose: 100.0 mg/kg/injection, schedule: Q01DX009 (ip), vehicle: other 93 % of control | endpoint: mean survival time, dose: 200.0 mg/kg/injection, schedule: Q01DX009 (ip), vehicle: other 93 % of control

CO[C@H]1Nc2c(ccc(C)c2O)C(=O)N2C=C(/C=C/C(N)=O)C[C@@H]12
inactive: endpoint: mean survival time, dose: 0.1 mg/kg/injection, schedule: Q01DX015 (ip), vehicle: saline 111 % of control | endpoint: mean survival time, dose: 0.2 mg/kg/injection, schedule: Q01DX015 (ip), vehicle: saline 119 % of control | endpoint: mean survival time, dose: 0.25 mg/kg/injection, schedule: Q01DX009 (ip), vehicle: saline sonified 106 % of control | endpoint: mean survival time, dose: 0.36 mg/kg/injection, schedule: Q01DX015 (ip), vehicle: saline 120 % of control | endpoint: mean survival time, dose: 0.5 mg/kg/injection, schedule: Q01DX009 (ip), vehicle: saline sonified 104 % of control | endpoint: mean survival time, dose: 1.0 mg/kg/injection, schedule: Q01DX009 (ip), vehicle: saline sonified 91 % of control | endpoint: mean survival time, dose: 1.0 mg/kg/injection, schedule: Q04DX003 (ip), vehicle: saline with Tween-80 117 % of control | endpoint: mean survival time, dose: 1.5 mg/kg/injection, schedule: Q04DX003 (ip), vehicle: saline with Tween-80 118 % of control | endpoint: mean survival time, dose: 25.0 micrograms/kg/injection, schedule: Q01DX009 (ip), vehicle: saline with Tween-80 108 % of control | endpoint: mean survival time, dose: 50.0 micrograms/kg/injection, schedule: Q01DX009 (ip), vehicle: saline with Tween-80 117 % of control | endpoint: mean survival time, dose: 100.0 micrograms/kg/injection, schedule: Q01DX009 (ip), vehicle: saline with Tween-80 109 % of control | endpoint: mean survival time, dose: 200.0 micrograms/kg/injection, schedule: Q01DX009 (ip), vehicle: saline with Tween-80 117 % of control | endpoint: median survival time, dose: 0.01 mg/kg/injection, schedule: Q01DX005 (ip), vehicle: DMSO 102 % of control | endpoint: median survival time, dose: 0.02 mg/kg/injection, schedule: Q01DX005 (ip), vehicle: DMSO 117 % of control | endpoint: median survival time, dose: 0.04 mg/kg/injection, schedule: Q01DX005 (ip), vehicle: DMSO 118 % of control

O=[N+]([O-])c1cccc(/C=C/C=C/c2ccc(Cl)c(S(=O)(=O)F)c2)c1
inactive: [2] 100 % of control | [1] 100 % of control | [3] 94 % of control | [4] 88 % of control | [5] 97 % of control | [6] 90 % of control

COC1C(N)C(OC2C(Oc3cccc4c(O)c5c(=O)oc6ccc(C)c7c(=O)oc(c34)c5c67)OC(C)C(O)C2(C)O)OC(C)C1O (configuration not stated)
active: endpoint: median survival time, dose: 1.25 mg/kg/injection, schedule: Q01DX005 (ip), vehicle: other 151 % of control | endpoint: median survival time, dose: 3.0 mg/kg/injection, schedule: Q01DX005 (ip), vehicle: other 177 % of control | endpoint: median survival time, dose: 5.0 mg/kg/injection, schedule: Q01DX005 (ip), vehicle: other 164 % of control and 177 % of control

COC1OC2COc3ccccc3OC2C(NC#N)C1OC(C)=O (configuration not stated)
inactive: [7] 101 % of control | [8] 100 % of control | [9] 100 % of control

CN(C)CCCNC(=O)c1ccc(N)cc1
inactive: [10] 102 % of control | endpoint: mean survival time, dose: 200.0 mg/kg/injection, schedule: Q04DX002 (ip), vehicle: saline 105 % of control | endpoint: mean survival time, dose: 400.0 mg/kg/injection, schedule: Q04DX002 (ip), vehicle: saline 97 % of control

O=C(Nc1ccc(F)c(Cl)c1)Oc1ccc(F)cc1Cl
inactive: [2] 103 % of control | [3] 104 % of control | [5] 92 % of control

NS(=O)(=O)c1ccc(NC(=O)Nc2cccc(F)c2)cc1
inactive: [2] 98 % of control | [3] 106 % of control | [5] 97 % of control

N=C(N)SCCCSC(=N)N
inactive: endpoint: mean survival time, dose: 25.0 mg/kg/injection, schedule: Q01DX009 (ip), vehicle: saline with Tween-80 101 % of control | endpoint: mean survival time, dose: 50.0 mg/kg/injection, schedule: Q01DX009 (ip), vehicle: saline with Tween-80 96 % of control | endpoint: mean survival time, dose: 50.0 mg/kg/injection, schedule: Q04DX003 (ip), vehicle: saline 98 % of control | [2] 90 % of control | endpoint: mean survival time, dose: 100.0 mg/kg/injection, schedule: Q04DX003 (ip), vehicle: saline 104 % of control | endpoint: mean survival time, dose: 200.0 mg/kg/injection, schedule: Q04DX003 (ip), vehicle: saline 102 % of control

CC1(C[N+](C)(C)C)COC(C)(C)O1 (configuration not stated)
inactive: endpoint: mean survival time, dose: 12.5 mg/kg/injection, schedule: Q04DX002 (ip), vehicle: saline 95 % of control | endpoint: mean survival time, dose: 25.0 mg/kg/injection, schedule: Q01DX001 (ip), vehicle: saline 98 % of control | endpoint: mean survival time, dose: 25.0 mg/kg/injection, schedule: Q04DX002 (ip), vehicle: saline 95 % of control | endpoint: mean survival time, dose: 50.0 mg/kg/injection, schedule: Q01DX001 (ip), vehicle: saline 96 % of control | endpoint: mean survival time, dose: 50.0 mg/kg/injection, schedule: Q04DX002 (ip), vehicle: saline 106 % of control | [7] 94 % of control | endpoint: mean survival time, dose: 100.0 mg/kg/injection, schedule: Q01DX001 (ip), vehicle: saline 103 % of control | [10] 95 % of control

NC(N)=NC(N)=Nc1ccc(Cl)c(Cl)c1
inactive: endpoint: mean survival time, dose: 50.0 mg/kg/injection, schedule: Q01DX001 (ip), vehicle: Klucel (hydroxypropylcellulose) (HPC) 94 % of control | endpoint: mean survival time, dose: 100.0 mg/kg/injection, schedule: Q01DX001 (ip), vehicle: Klucel (hydroxypropylcellulose) (HPC) 105 % of control | endpoint: mean survival time, dose: 150.0 mg/kg/injection, schedule: Q01DX009 (ip), vehicle: saline 108 % of control | endpoint: mean survival time, dose: 200.0 mg/kg/injection, schedule: Q01DX001 (ip), vehicle: Klucel (hydroxypropylcellulose) (HPC) 94 % of control

Cc1cc(SCSc2cc(C)[o+]c(C)c2)cc(C)[o+]1
inactive: endpoint: mean survival time, dose: 100.0 mg/kg/injection, schedule: Q04DX003 (ip), vehicle: Klucel (hydroxypropylcellulose) (HPC) 100 % of control | endpoint: mean survival time, dose: 200.0 mg/kg/injection, schedule: Q04DX003 (ip), vehicle: Klucel (hydroxypropylcellulose) (HPC) 104 % of control | endpoint: mean survival time, dose: 400.0 mg/kg/injection, schedule: Q04DX003 (ip), vehicle: Klucel (hydroxypropylcellulose) (HPC) 102 % of control

ClCC[Se](Cl)(Cl)c1ccccc1
inactive: endpoint: mean survival time, dose: 0.78 mg/kg/injection, schedule: Q01DX009 (ip), vehicle: saline 96 % of control and 110 % of control | endpoint: mean survival time, dose: 1.56 mg/kg/injection, schedule: Q01DX009 (ip), vehicle: saline 108 % of control | endpoint: mean survival time, dose: 3.12 mg/kg/injection, schedule: Q01DX009 (ip), vehicle: saline 108 % of control and 112 % of control | endpoint: mean survival time, dose: 6.25 mg/kg/injection, schedule: Q01DX009 (ip), vehicle: saline 115 % of control and 122 % of control

OC(c1ccccc1)(c1ccccc1)C(Cc1ccccc1)Cc1ccccc1
inactive: [1] 102 % of control | [4] 100 % of control | [6] 94 % of control

COC(=O)CC1(C(=O)OC)Nc2ccccc2C(=O)O1 (configuration not stated)
inactive: [7] 94 % of control | [8] 96 % of control | [9] 96 % of control

Cc1cccc2c1NC(=O)C2=O
inactive: endpoint: median survival time, dose: 100.0 mg/kg/injection, schedule: Q04DX002 (ip), vehicle: saline with Tween-80 94 % of control | endpoint: median survival time, dose: 400.0 mg/kg/injection, schedule: Q04DX002 (ip), vehicle: saline with Tween-80 105 % of control

[Cl][Pt+2][Cl].[NH-]c1ccc(Cl)cc1[NH-]
inactive: endpoint: mean survival time, dose: 2.5 mg/kg/injection, schedule: Q01DX009 (ip), vehicle: saline with Tween-80 113 % of control | endpoint: mean survival time, dose: 5.0 mg/kg/injection, schedule: Q01DX009 (ip), vehicle: saline with Tween-80 118 % of control
active: endpoint: mean survival time, dose: 40.0 mg/kg/injection, schedule: Q01DX009 (ip), vehicle: saline with Tween-80 179 % of control

Cc1c2ccncc2c(C)c2c1oc1ccccc12
inactive: endpoint: mean survival time, dose: 100.0 mg/kg/injection, schedule: Q01DX001 (ip), vehicle: other 108 % of control | endpoint: mean survival time, dose: 200.0 mg/kg/injection, schedule: Q01DX001 (ip), vehicle: other 98 % of control | endpoint: mean survival time, dose: 400.0 mg/kg/injection, schedule: Q01DX001 (ip), vehicle: other 95 % of control
